In patent US11903957B2, “Composition for preventing, ameliorating, or treating sleep disturbance comprising flavonoid compound as effective component” (KOREA INSTITUTE OF ORIENTAL MEDICINE, priority 2018, dated 2024):

How the values were obtained:
[1] = tested on: C57BL/6 mouse induced to have sleep disturbance by caffeine; assay: Open field test in animal model with sleep disturbance induced by caffeine; assay type: in vivo; conditions: 30 mg/kg saponarin or 200 mg/kg St. John's wort orally for 14 days, compared to control
Experimental: (§1) 30 mg/kg saponarin (Sigma-Aldrich, St. Louis, Mo., USA; dissolved in 0.5% CMC solution) and 200 mg/kg St. John's wort (dissolved in 0.5% CMC solution) were aliquoted to satisfy the administration amount and orally administered one hour before the caffeine administration. To the normal and stress control, 0.5% CMC solution was orally administered while 30 mg/kg saponarin was administered to the saponarin group and 200 mg/kg St. John's wort was administered to the positive control, in an amount of 0.1 ml for each.
Nine-week old male C57BL/6 mouse with bodyweight of 20 to 22 g was obtained from DBL Co., Ltd. (Eumseong-Gun, Chungcheong-Bukdo, Korea). The animal was supplied with a sufficient amount of water and solid feed (not added with any antibiotics, Samyang Animal Feed Co.) till the test day, and it was used for the experiment after acclimation for 1 week under an environment with temperature of 22±2° C., humidity of 55±15%, and 12-hour light and dark cycle. The experiment was carried out as illustrated in FIG. 1. Chemicals were orally administered every day for 14 days in total, and, according to intraperitoneal administration of 10 mg/kg caffeine 1 hour thereafter, sleep disturbance was induced.
Open field test is to determine sleep disturbance and amelioration level obtained by pharmaceutical in which the determination is made by measuring the voluntary movement of a mouse after entering an unfamiliar field for the first time. A mouse was placed at the center (30×30×30 cm) of a white box, which is made of white acryl, and then travel distance (total distance moved), mobility time, mobility frequency and immobility time for 1 hour were analyzed by using Video tracking software (Ethovision XT, Noldus, Nederland).
The saponarin administration group was orally administered with 30 mg/kg saponarin. After one hour, the animal was intraperitoneally administered with 10 mg/kg caffeine to induce sleep disturbance caused by caffeine for 14 days. Then, travel distance of the mouse was measured.
Then, the mobility time and mobility frequency were measured.
Thereafter, the immobility time of mouse was measured.

neuropeptide Y = assay: mRNA expression level of neuropeptide Y in cerebral cortex (real-time PCR), caffeine-induced sleep disturbance; assay type: in vivo, mouse; conditions: 30 mg/kg saponarin or 200 mg/kg St. John's wort orally for 14 days, caffeine i.p.; cortex obtained on Day 15; compared to control; FIG. 5A
Experimental: as §1
(§2) Nine-week old male C57BL/6 mouse with bodyweight of 20 to 22 g was obtained from DBL Co., Ltd. (Eumseong-Gun, Chungcheong-Bukdo, Korea). […]
(§3) Expression pattern of the gene in cerebral cortex, which has been removed from each test animal upon the completion of the test, was determined by real-time PCR. The cerebral cortex tissues of a mouse were treated with RNAzolB (Tel-Test) to extract RNA, and then analyzed by cDNA and real-time PCR instrument using One-step SYBR Green PCR kit (AB science).
(§4) The cerebral cortex tissues were added with 500 μl of RNAzol(B), disrupted using a homogenizer, and then added with 50 μl of chloroform (CHCl3) followed by mixing again for 15 seconds. […] Real time quantitative PCR was carried out by using Applied Biosystems 7500 Real-Time PCR system (Applied Biosystems, USA). […]

cholecystokinin = assay: mRNA expression level of cholecystokinin in cerebral cortex (real-time PCR), caffeine-induced sleep disturbance; assay type: in vivo, mouse; conditions: 30 mg/kg saponarin or 200 mg/kg St. John's wort orally for 14 days, caffeine i.p.; cortex obtained on Day 15; compared to control; FIG. 5B
Experimental: as §1, §2, §3, §4

GABA A α1 receptor = assay: mRNA expression level of GABA A α1 receptor in cerebral cortex (real-time PCR), caffeine-induced sleep disturbance; assay type: in vivo, mouse; conditions: 30 mg/kg saponarin or 200 mg/kg St. John's wort orally for 14 days, caffeine i.p.; cortex obtained on Day 15; compared to control; FIG. 6, p<0.01
Experimental: as §1, §2, §3, §4

[2] = tested on: SD rat induced to have sleep disturbance by stress; assay: Electroencephalography (EEG) measurement in animal model with sleep disturbance induced by stress; assay type: in vivo; conditions: foot pad electric shock stress for 5 days, compared to stress control
Experimental: The saponarin administration group was administered orally with 0.1 ml of saponarin, 30 minutes before the stress application. The normal and stress control were administered orally with 0.1 ml of a solvent. Operation was carried out for four divided groups, i.e., normal, control, saponarin, and positive control (St. John's wort), and total 24 animals were used, i.e., 6 animals per group.
A male rat (7 week old) was suitably fed with solid feed and water till the test day. After the acclimation for 1 week in an environment in which temperature of 23 to 25° C., humidity of 45 to 60%, and illuminance of 200 to 300 LUX, and 12 hour light and dark cycle are maintained, the animals were subjected to the test. For the operation, a 7-week old Sprague Dawley (SD) rat was anesthetized by intraperitoneal injection of 40 mg/kg pentobarbital, and then placed and fixed on a stereotaxic instrument (Stoelting CO, USA) such that the bregma and lambda are in horizontal alignment. After suppressing subgaleal bleeding, hairs were shaved and the skull was exposed by excising the scalp and removing the periosteum. Based on the anatomy drawing by Paxinos & Watson, a hole was created by using drill, an electrode was inserted to reach the dura mater, and an electrode composed of two silver wires was inserted to neck muscle to record an electromyogram. On top of the cranial bone of cerebellum, pins attached with an electrode for recording an electroencephalogram and an electrode for recording an electromyogram were placed and fixed on top of the cranial bone by applying dental cement. […]
After the stress for 5 days, the rat was orally administered with each pharmaceutical, and, after 30 minutes, EEG recording was carried out in a light-blocking acrylic cylinder (PM 8:00 to AM 8:00). The wake time and sleep (REM and NonREM) time were recorded by using SleepSign Ver. […]
After 30 minutes, foot pad electric shock was applied to the SD rats to induce for 5 days sleep disturbance caused by stress. Wake time was then measured for each rat.

O=c1cc(-c2ccc(O)cc2)oc2cc(O[C@@H]3O[C@H](CO)[C@@H](O)[C@H](O)[C@H]3O)c([C@@H]3O[C@H](CO)[C@@H](O)[C@H](O)[C@H]3O)c(O)c12 [saponarin, (1S)-1,5-anhydro-1-[7-(beta-D-glucopyranosyloxy)-5-hydroxy-2-(4-hydroxyphenyl)-4-oxo-4H-chromen-6-yl]-D-glucitol]
travel distance (total distance moved), open field test ([1]; 10 mg/kg caffeine i.p. 1 hour later, FIG. 2, p<0.05): decreased in significant sense | mobility time, open field test ([1]; 10 mg/kg caffeine i.p., FIG. 3A, p<0.01): decreased in significant sense | mobility frequency, open field test ([1]; 10 mg/kg caffeine i.p., FIG. 3B, p<0.01): decreased in significant sense | immobility time, open field test ([1]; 10 mg/kg caffeine i.p., FIG. 4): increased | mRNA expression of neuropeptide Y in cerebral cortex (neuropeptide Y): show increased expression or tend to show increased expression in statistically significant sense | mRNA expression of cholecystokinin in cerebral cortex (cholecystokinin): show increased expression or tend to show increased expression in statistically significant sense | mRNA expression of GABA A α1 receptor in cerebral cortex (GABA A α1 receptor): increased mRNA expression of GABA A α1 receptor in significant sense | wake time during sleep by EEG ([2]; 30 mg/kg saponarin or 200 mg/kg St. John's wort orally, FIG. 8, p<0.05): decreased in significant sense | REM sleep time by EEG ([2]; 30 mg/kg saponarin orally, FIG. 9): tends to increase | NonREM sleep time by EEG ([2]; 30 mg/kg saponarin orally, FIG. 10): tends to increase
